Data reported in ChEMBL document CHEMBL3112495, “Diphenylpyridylethanamine (DPPE)-based aminoheterocycles as cholesteryl ester transfer protein inhibitors” (Bioorg Med Chem Lett, 2014).

tested on: not listed separately; assay: Metabolic stability of the compound in rat liver microsomes assessed as compound remaining after 10 mins; assay type: ADME; conditions: read-out: Stability

Structure (SMILES)	remaining at 10 min [%]
Fc1cc(OC(F)(F)C(F)F)cc([C@@](Cc2ccccc2)(Nc2nc(C(F)(F)F)c(Br)s2)c2ccc(Cl)cn2)c1	95

tested on: not listed separately; assay: Metabolic stability of the compound in mouse liver microsomes assessed as compound remaining after 10 mins; assay type: ADME, Microsome; conditions: read-out: Stability

Structure (SMILES)	remaining at 10 min [%]
Fc1cc(OC(F)(F)C(F)F)cc([C@@](Cc2ccccc2)(Nc2nc(C(F)(F)F)c(Br)s2)c2ccc(Cl)cn2)c1	100

tested on: not listed separately; assay: Metabolic stability of the compound in human liver microsomes assessed as compound remaining after 10 mins; assay type: ADME; conditions: read-out: Stability

Structure (SMILES)	remaining at 10 min [%]
Fc1cc(OC(F)(F)C(F)F)cc([C@@](Cc2ccccc2)(Nc2nc(C(F)(F)F)c(Br)s2)c2ccc(Cl)cn2)c1	100

biological target: T1, Cholesteryl ester transfer protein (Homo sapiens, UniProt P11597); assay: Inhibition of human recombinant CETP using [3H]-CE/HDL by scintillation proximity assay; conditions: not given
T1 sequence (P11597 whole entry): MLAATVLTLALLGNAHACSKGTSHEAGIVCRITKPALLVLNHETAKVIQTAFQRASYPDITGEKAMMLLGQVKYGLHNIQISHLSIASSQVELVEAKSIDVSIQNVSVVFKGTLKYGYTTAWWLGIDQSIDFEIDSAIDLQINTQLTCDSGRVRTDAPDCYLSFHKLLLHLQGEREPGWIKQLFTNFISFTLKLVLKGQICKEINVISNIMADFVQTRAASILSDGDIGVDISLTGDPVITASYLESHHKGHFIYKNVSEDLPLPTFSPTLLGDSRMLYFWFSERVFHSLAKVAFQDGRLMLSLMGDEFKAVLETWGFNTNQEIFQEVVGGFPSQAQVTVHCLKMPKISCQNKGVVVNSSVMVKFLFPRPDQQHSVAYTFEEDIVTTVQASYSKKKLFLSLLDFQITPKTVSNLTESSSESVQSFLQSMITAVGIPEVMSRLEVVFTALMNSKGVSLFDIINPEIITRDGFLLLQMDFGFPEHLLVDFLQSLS

Structure (SMILES)	IC50 [µM]
Fc1cc(OC(F)(F)C(F)F)cc([C@@](Cc2ccccc2)(Nc2nc3ccccc3[nH]2)c2ccc(Cl)cn2)c1	0.09
Fc1cc(OC(F)(F)C(F)F)cc([C@@](Cc2ccccc2)(Nc2nc3c(s2)CCCC3)c2ccc(Cl)cn2)c1	0.02
Fc1cc(OC(F)(F)C(F)F)cc([C@@](Cc2ccccc2)(Nc2nc(C(F)(F)F)c(Br)s2)c2ccc(Cl)cn2)c1	0.04
Cc1nc(N[C@](Cc2ccccc2)(c2cc(F)cc(OC(F)(F)C(F)F)c2)c2ccc(Cl)cn2)sc1C	0.04
Fc1cc(C(F)(F)F)cc([C@](Cc2ccccc2)(Nc2nc3c(s2)CCCC3)c2ccc(Cl)cn2)c1	10.8
Cc1nc(N[C@@](Cc2ccccc2)(c2cc(F)cc(C(F)(F)F)c2)c2ccc(Cl)cn2)sc1C	12.2
Cc1nc(N[C@](Cc2ccccc2)(c2cc(F)cc(C(F)(F)F)c2)c2ccc(Cl)cn2)sc1C	0.04

biological target: T1, Cholesteryl ester transfer protein; assay: Inhibition of CETP in human whole plasma using [3H]-CE/HDL after 10 mins; conditions: not given

Structure (SMILES)	IC50 [µM]
Fc1cc(OC(F)(F)C(F)F)cc([C@@](Cc2ccccc2)(Nc2nc3ccccc3[nH]2)c2ccc(Cl)cn2)c1	15
Fc1cc(OC(F)(F)C(F)F)cc([C@@](Cc2ccccc2)(Nc2nc3c(s2)CCCC3)c2ccc(Cl)cn2)c1	4.2
Fc1cc(OC(F)(F)C(F)F)cc([C@@](Cc2ccccc2)(Nc2nc(C(F)(F)F)c(Br)s2)c2ccc(Cl)cn2)c1	6.5
Cc1nc(N[C@](Cc2ccccc2)(c2cc(F)cc(OC(F)(F)C(F)F)c2)c2ccc(Cl)cn2)sc1C	5.5
Cc1nc(N[C@](Cc2ccccc2)(c2cc(F)cc(C(F)(F)F)c2)c2ccc(Cl)cn2)sc1C	17.3

biological target: T2, Cytochrome P450 3A4 (Homo sapiens, UniProt P08684); assay: Inhibition of CYP3A4 (unknown origin) using 7-benzyloxy-4-trifluoromethylcoumarin as substrate; assay type: ADME; conditions: not given
T2 sequence (P08684 whole entry): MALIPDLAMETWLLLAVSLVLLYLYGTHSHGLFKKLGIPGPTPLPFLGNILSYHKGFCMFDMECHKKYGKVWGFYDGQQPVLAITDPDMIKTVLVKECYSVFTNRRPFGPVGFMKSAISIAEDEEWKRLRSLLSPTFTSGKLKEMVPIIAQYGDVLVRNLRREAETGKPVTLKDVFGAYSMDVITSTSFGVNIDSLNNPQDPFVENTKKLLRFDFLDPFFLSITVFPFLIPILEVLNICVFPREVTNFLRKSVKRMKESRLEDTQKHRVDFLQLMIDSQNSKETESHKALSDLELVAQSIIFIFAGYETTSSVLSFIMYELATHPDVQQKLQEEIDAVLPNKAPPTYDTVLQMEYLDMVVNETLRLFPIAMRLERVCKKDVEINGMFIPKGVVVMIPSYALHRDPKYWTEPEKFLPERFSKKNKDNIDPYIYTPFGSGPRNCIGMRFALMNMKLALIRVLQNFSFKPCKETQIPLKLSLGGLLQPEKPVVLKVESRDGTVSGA

Structure (SMILES)	IC50 [µM]
Fc1cc(OC(F)(F)C(F)F)cc([C@@](Cc2ccccc2)(Nc2nc3ccccc3[nH]2)c2ccc(Cl)cn2)c1	40
Fc1cc(OC(F)(F)C(F)F)cc([C@@](Cc2ccccc2)(Nc2nc(C(F)(F)F)c(Br)s2)c2ccc(Cl)cn2)c1	> 40

biological target: T2, Cytochrome P450 3A4; assay: Inhibition of CYP3A4 (unknown origin) using benzyloxyresorufin as substrate; assay type: ADME; conditions: not given

Structure (SMILES)	IC50 [µM]
Fc1cc(OC(F)(F)C(F)F)cc([C@@](Cc2ccccc2)(Nc2nc3ccccc3[nH]2)c2ccc(Cl)cn2)c1	13
Fc1cc(OC(F)(F)C(F)F)cc([C@@](Cc2ccccc2)(Nc2nc(C(F)(F)F)c(Br)s2)c2ccc(Cl)cn2)c1	> 40

biological target: Cytochrome P450 2D6 (Homo sapiens, UniProt P10635); assay: Inhibition of CYP2D6 (unknown origin); assay type: ADME; conditions: not given
Sequence (P10635 whole entry): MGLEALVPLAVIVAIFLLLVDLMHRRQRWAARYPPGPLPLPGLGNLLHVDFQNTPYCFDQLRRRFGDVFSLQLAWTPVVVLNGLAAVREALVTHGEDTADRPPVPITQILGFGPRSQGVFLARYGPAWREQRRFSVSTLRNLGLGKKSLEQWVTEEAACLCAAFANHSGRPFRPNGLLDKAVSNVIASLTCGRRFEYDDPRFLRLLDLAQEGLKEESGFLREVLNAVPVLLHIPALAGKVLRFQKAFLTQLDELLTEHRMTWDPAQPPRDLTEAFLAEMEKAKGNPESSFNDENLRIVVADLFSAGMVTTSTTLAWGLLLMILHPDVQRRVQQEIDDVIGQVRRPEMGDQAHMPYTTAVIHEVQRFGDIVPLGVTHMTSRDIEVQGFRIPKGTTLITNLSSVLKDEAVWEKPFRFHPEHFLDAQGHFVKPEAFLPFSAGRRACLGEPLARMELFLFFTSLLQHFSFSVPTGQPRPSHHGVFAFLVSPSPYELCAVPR

Structure (SMILES)	IC50 [µM]
Fc1cc(OC(F)(F)C(F)F)cc([C@@](Cc2ccccc2)(Nc2nc3ccccc3[nH]2)c2ccc(Cl)cn2)c1	40
Fc1cc(OC(F)(F)C(F)F)cc([C@@](Cc2ccccc2)(Nc2nc(C(F)(F)F)c(Br)s2)c2ccc(Cl)cn2)c1	> 40

biological target: Cytochrome P450 2C19 (Homo sapiens, UniProt P33261); assay: Inhibition of CYP2C19 (unknown origin); assay type: ADME; conditions: not given
Sequence (P33261 whole entry): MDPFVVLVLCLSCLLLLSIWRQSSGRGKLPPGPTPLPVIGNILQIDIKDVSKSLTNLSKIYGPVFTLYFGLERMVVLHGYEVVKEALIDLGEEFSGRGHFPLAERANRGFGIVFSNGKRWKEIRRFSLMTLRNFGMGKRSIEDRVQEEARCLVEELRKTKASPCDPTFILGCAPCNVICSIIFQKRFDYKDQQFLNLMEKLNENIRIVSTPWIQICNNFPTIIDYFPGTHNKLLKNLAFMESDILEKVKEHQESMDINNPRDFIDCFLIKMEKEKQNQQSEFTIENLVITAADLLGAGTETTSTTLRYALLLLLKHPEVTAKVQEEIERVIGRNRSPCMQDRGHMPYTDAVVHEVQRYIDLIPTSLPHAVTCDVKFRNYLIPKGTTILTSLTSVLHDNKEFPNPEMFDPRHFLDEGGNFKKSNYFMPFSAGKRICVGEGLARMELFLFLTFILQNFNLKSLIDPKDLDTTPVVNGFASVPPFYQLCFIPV

Structure (SMILES)	IC50 [µM]
Fc1cc(OC(F)(F)C(F)F)cc([C@@](Cc2ccccc2)(Nc2nc3ccccc3[nH]2)c2ccc(Cl)cn2)c1	3
Fc1cc(OC(F)(F)C(F)F)cc([C@@](Cc2ccccc2)(Nc2nc(C(F)(F)F)c(Br)s2)c2ccc(Cl)cn2)c1	> 40

biological target: Cytochrome P450 2C9 (Homo sapiens, UniProt P11712); assay: Inhibition of CYP2C9 (unknown origin); assay type: ADME; conditions: not given
Sequence (P11712 whole entry): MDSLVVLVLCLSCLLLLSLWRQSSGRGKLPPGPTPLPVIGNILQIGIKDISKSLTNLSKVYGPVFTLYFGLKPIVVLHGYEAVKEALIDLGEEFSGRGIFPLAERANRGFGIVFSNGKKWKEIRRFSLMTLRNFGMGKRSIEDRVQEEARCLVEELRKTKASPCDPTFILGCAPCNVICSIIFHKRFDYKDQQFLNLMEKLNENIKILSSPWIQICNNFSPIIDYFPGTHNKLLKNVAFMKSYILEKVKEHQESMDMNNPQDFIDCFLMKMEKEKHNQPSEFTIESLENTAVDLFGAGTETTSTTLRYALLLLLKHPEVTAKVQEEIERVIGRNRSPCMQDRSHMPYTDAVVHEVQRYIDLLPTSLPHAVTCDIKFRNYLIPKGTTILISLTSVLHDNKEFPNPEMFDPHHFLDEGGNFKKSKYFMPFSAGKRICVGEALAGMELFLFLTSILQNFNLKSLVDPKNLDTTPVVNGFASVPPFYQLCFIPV

Structure (SMILES)	IC50 [µM]
Fc1cc(OC(F)(F)C(F)F)cc([C@@](Cc2ccccc2)(Nc2nc3ccccc3[nH]2)c2ccc(Cl)cn2)c1	19
Fc1cc(OC(F)(F)C(F)F)cc([C@@](Cc2ccccc2)(Nc2nc(C(F)(F)F)c(Br)s2)c2ccc(Cl)cn2)c1	> 40

biological target: T3, Cytochrome P450 1A2 (Homo sapiens, UniProt P05177); assay: Inhibition of CYP1A2 (unknown origin); assay type: ADME; conditions: not given
T3 sequence (P05177 whole entry): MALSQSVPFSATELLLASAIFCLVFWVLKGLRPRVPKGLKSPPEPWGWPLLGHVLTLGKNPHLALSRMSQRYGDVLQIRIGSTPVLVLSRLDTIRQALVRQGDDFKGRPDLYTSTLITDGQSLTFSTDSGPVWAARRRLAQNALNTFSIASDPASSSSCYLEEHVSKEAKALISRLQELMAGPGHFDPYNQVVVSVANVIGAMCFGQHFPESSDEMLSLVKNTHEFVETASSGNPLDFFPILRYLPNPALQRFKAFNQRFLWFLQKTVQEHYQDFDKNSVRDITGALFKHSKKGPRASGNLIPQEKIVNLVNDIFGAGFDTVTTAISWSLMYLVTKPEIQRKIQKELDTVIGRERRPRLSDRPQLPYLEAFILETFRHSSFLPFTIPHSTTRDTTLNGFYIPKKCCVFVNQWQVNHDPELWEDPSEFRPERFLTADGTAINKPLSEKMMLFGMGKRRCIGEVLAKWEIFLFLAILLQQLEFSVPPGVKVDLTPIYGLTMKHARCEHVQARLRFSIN

Structure (SMILES)	IC50 [µM]
Fc1cc(OC(F)(F)C(F)F)cc([C@@](Cc2ccccc2)(Nc2nc3ccccc3[nH]2)c2ccc(Cl)cn2)c1	40
Fc1cc(OC(F)(F)C(F)F)cc([C@@](Cc2ccccc2)(Nc2nc(C(F)(F)F)c(Br)s2)c2ccc(Cl)cn2)c1	> 40

biological target: T4, Nuclear receptor subfamily 1 group I member 2 (Homo sapiens, UniProt O75469); assay: Activation of PXR (unknown origin); conditions: not given
T4 sequence (O75469 whole entry): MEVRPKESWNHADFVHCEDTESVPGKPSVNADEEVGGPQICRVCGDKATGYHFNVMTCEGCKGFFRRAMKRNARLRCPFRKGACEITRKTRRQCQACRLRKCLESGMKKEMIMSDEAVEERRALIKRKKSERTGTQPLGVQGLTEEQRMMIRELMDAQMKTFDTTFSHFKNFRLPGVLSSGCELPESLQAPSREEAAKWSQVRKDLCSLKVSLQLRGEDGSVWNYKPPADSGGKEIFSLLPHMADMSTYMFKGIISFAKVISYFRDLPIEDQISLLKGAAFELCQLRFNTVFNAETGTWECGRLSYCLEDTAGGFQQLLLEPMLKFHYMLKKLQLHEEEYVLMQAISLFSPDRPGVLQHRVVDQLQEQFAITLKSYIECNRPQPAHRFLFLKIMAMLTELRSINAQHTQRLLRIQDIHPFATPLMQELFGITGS

Structure (SMILES)	EC60 [µM]
Fc1cc(OC(F)(F)C(F)F)cc([C@@](Cc2ccccc2)(Nc2nc3ccccc3[nH]2)c2ccc(Cl)cn2)c1	> 17
Fc1cc(OC(F)(F)C(F)F)cc([C@@](Cc2ccccc2)(Nc2nc(C(F)(F)F)c(Br)s2)c2ccc(Cl)cn2)c1	> 5.6

biological target: T5, PXR (Homo sapiens, UniProt O75469); assay: Activation of PXR (unknown origin) relative to rifampicin; conditions: not given
T5 sequence (O75469 whole entry): T4 sequence (O75469 whole entry)

Structure (SMILES)	Emax [%]
Fc1cc(OC(F)(F)C(F)F)cc([C@@](Cc2ccccc2)(Nc2nc3ccccc3[nH]2)c2ccc(Cl)cn2)c1	70
Fc1cc(OC(F)(F)C(F)F)cc([C@@](Cc2ccccc2)(Nc2nc(C(F)(F)F)c(Br)s2)c2ccc(Cl)cn2)c1	37
